Assay results from US12186309B2, “RNA virus inhibitor compounds and uses thereof” (The Governors of the University of Alberta, priority 2021, dated 2025).
Where two headings read alike, the source gives them in different places.

What was measured:
[1] = system: SARS-CoV-2; assay: SARS-CoV-2 plaque reduction assay in Vero E6 cells; assay type: cell-based; details: read-out: SARS-CoV-2 Antiviral EC50
[2] = target: SARS-CoV-2 3CLP (Severe acute respiratory syndrome coronavirus 2 (2019-nCoV) (SARS-CoV-2), UniProt P0DTD1); assay: SARS-CoV-2 3CLP inhibition FRET assay; assay type: biochemical; details: 80 nM SARS-CoV-2 3CLP, 100 μM FRET substrate, pH 7.8, 37° C., 10 min preincubation; read-out: 3CL Protease IC50
[3] = in vitro; assay type: cell-based
Procedure: Cell viability was measured using the CellTiter-Glo luminescent cell viability assay (Promega). Separately A549 (human lung epithelial) cells and VeroE6 cells were seeded at 5×10^3 cells/well in 96-well plates and incubated overnight before treatment. Compounds were solubilized in DMSO and added to cells in an eight-point four-fold serial dilution (200 μM to 0.0122 μM). Cells were incubated in the presence of compounds for 24 hours before addition of the luminescence substrate and measurement of ATP activity according to manufacturer's instructions. The percentage of viable cells was calculated relative to cells treated with solvent alone (0.5% DMSO).

[4] = Severe acute respiratory syndrome coronavirus 2, Vero C1008, Vero E6 cells, SARS-CoV-2/CANADA/VIDO 01/2020, MOI 0.0001 pfu/cell, plaques counted after 48 h
[5] = Severe acute respiratory syndrome coronavirus 2, Vero C1008, 48 h

For `CC(C)C[C@@H](C(=O)N[C@H](C#N)C[C@@H]1CCCNC1=O)N1C(=O)c2ccccc2C1=O` [Compound 1, (2S)—N-{(1S)-1-cyano-2-[(3S)-2-oxopiperidin-3-yl]ethyl}-2-(1,3-dioxo-1,3-dihydro-2H-isoindol-2-yl)-4-methylpentanamide], the EC50 [1, 4] was > 10 µM and the IC50 [2] was 8.5 µM.

For `CC(C)C[C@@H](C(=O)N[C@H](C#N)C[C@@H]1CCCNC1=O)N1C(=O)CC(C)(C)C1=O` [Compound 2, (2S)—N-{(1S)-1-cyano-2-[(3S)-2-oxopiperidin-3-yl]ethyl}-2-(3,3-dimethyl-2,5-dioxopyrrolidin-1-yl)-4-methylpentanamide], the EC50 [1, 4] was > 10 µM and the IC50 [2] was 10.7 µM.

In the case of `CC(C)C[C@@H](C(=O)N[C@H](C#N)C[C@@H]1CCCNC1=O)N1C(=O)C[C@H](c2ccccc2)C1=O` [Compound 5, (2S)—N-{(1S)-1-cyano-2-[(3S)-2-oxopiperidin-3-yl]ethyl}-2-[(3R)-2,5-dioxo-3-phenylpyrrolidin-1-yl]-4-methylpentanamide], the EC50 [1, 4] is reported as > 10 µM and the IC50 [2] is reported as 6.9 µM.

With `CC(C)C[C@@H](C(=O)N[C@H](C#N)C[C@@H]1CCCNC1=O)n1cccc(NC(=O)OC(C)(C)C)c1=O` [Compound 7, tert-butyl {1-[(2S)-1-({(1S)-1-cyano-2-[(3S)-2-oxopiperidin-3-yl]ethyl}amino)-4-methyl-1-oxopentan-2-yl]-2-oxo-1,2-dihydropyridin-3-yl}carbamate] the EC50 [1, 4] was < 10 µM.

In the case of `CC(C)(C)[C@H](NC(=O)C(F)F)C(=O)N1C[C@H]2[C@@H]([C@H]1C(=O)N[C@H](C#N)C[C@@H]1CCCNC1=O)C2(C)C` [Compound 20, (1R,2S,5S)—N-{(1S)-1-cyano-2-[(3S)-2-oxopiperidin-3-yl]ethyl}-3-[N-(difluoroacetyl)-3-methyl-L-valyl]-6,6-dimethyl-3-azabicyclo[3.1.0]hexane-2-carboxamide], the CC50 at 24 h ([3]; African green monkey) is reported as > 200 µM, the CC50 at 24 h ([3]; human) is reported as > 200 µM and the EC50 [1, 5] is reported as < 5 µM.

For `[2H]C1([2H])CC[C@@H](C[C@@H](C#N)NC(=O)[C@@H]2[C@@H]3[C@H](CN2C(=O)[C@@H](NC(=O)C(F)F)C(C)(C)C)C3(C)C)C(=O)N1` [Compound 24, (1R,2S,5S)—N-{(1S)-1-cyano-2-[(3S)-2-oxo(6,6-^2H2)piperidin-3-yl]ethyl}-3-[N-(difluoroacetyl)-3-methyl-L-valyl]-6,6-dimethyl-3-azabicyclo[3.1.0]hexane-2-carboxamide], the CC50 at 24 h ([3]; African green monkey) was > 200 µM, the CC50 at 24 h ([3]; human) was > 200 µM and the EC50 [1, 5] was < 5 µM.
